Test [1] has as its system capacitative calcium entry in cell strain deficient of IP3 receptors produced from DT40. The test can be described thus: Inhibitory activity against capacitative calcium entry (fura-2 fluorescence ratio). It counts as cell-based, chickens. Particulars: Gallus gallus. The protocol:
Fura-2 acetoxymethylester was introduced to the cell strain deficient of IP3 receptors produced from the cultivated cell strain DT40 from chickens. The intracellular calcium concentration was measured by the measurement of the fluorescence of 510 nm obtained at 2-wavelength excitation of 340 nm and 380 nm, and its fluorescence ratio F=340/380.
Intracellular calcium store was depleted by activating tapsigalguine (inhibitor of the endoplasmic reticulum calcium pump) without the presence of the calcium ion in the extracellular fluid.
(§1) 2-aminoethyl diphenylborinate was used as a comparative compound.

Test [2] deals with T1, calcium release by IP3 (IP3 receptor) (Mus musculus, UniProt P11881).
T1 construct: from tissue; host or cells: mouse cerebellum microsomes
T1 sequence (P11881 whole entry): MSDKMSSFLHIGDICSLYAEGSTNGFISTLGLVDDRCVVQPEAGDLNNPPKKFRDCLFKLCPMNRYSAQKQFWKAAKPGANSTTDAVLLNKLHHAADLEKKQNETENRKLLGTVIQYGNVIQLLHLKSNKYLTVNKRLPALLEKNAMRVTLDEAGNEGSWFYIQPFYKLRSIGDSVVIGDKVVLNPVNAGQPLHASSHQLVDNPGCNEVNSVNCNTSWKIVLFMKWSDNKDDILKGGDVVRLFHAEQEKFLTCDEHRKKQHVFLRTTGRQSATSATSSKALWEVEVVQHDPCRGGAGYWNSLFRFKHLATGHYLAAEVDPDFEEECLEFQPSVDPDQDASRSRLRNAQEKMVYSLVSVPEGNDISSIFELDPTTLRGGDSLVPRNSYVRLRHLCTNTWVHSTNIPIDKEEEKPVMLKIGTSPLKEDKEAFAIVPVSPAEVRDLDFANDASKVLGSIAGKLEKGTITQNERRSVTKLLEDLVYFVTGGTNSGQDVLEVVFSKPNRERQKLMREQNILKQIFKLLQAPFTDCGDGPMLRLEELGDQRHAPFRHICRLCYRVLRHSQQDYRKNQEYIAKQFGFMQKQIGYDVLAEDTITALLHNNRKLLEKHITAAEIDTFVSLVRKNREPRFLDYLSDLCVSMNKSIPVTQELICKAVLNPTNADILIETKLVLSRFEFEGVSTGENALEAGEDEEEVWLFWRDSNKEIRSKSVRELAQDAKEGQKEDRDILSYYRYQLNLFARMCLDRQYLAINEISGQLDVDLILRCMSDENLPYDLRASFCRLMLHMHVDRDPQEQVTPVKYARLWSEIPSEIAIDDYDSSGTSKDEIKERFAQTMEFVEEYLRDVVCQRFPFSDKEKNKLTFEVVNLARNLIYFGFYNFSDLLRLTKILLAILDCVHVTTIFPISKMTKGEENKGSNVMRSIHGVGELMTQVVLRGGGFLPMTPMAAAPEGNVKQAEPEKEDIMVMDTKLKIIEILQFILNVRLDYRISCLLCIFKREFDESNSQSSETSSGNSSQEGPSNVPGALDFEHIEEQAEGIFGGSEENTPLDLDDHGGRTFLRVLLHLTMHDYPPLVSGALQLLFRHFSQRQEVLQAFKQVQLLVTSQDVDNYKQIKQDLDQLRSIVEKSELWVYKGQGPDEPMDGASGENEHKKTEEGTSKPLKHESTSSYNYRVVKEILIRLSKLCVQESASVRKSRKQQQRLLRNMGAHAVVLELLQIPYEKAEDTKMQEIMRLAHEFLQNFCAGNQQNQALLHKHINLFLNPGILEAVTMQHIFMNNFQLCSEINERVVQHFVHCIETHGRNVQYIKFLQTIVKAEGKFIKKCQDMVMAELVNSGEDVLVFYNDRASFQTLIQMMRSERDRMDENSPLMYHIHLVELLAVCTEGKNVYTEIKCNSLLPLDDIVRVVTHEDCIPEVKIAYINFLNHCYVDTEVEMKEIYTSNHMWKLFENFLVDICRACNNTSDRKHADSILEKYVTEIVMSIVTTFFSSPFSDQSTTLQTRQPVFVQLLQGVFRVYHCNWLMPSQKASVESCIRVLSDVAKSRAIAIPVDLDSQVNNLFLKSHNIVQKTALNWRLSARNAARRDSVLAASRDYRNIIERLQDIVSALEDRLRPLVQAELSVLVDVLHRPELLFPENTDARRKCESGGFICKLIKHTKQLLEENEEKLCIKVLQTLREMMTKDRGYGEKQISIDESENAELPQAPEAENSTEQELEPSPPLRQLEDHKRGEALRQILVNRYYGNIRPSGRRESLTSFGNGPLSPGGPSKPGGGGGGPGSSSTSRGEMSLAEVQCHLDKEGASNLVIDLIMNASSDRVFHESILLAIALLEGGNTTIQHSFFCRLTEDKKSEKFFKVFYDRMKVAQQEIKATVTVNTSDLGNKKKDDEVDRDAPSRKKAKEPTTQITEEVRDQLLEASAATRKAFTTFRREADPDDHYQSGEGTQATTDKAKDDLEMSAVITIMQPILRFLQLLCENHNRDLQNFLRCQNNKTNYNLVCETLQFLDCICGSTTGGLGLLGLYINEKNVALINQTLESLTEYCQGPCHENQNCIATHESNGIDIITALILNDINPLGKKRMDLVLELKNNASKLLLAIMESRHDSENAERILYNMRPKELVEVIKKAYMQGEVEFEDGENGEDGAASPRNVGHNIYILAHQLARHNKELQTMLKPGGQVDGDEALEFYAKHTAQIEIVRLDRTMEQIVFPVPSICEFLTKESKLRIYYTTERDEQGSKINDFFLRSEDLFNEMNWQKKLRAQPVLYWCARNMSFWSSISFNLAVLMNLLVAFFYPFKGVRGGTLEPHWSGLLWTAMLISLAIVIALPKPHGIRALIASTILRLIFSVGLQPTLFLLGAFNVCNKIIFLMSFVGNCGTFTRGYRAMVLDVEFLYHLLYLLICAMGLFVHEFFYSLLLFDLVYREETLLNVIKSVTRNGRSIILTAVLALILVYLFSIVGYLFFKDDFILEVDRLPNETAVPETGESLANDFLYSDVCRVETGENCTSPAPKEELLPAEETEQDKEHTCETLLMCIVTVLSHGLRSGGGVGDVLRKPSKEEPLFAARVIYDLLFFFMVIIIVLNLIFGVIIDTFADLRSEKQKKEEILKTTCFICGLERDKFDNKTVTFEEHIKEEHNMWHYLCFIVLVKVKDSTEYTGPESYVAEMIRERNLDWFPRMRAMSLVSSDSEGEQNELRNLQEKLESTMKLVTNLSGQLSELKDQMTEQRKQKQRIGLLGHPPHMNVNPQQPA
Kind of test: Inhibitory activity against calcium release by IP3 (cerebellum microsomes, fura2). The test is classed as biochemical. As for the experimental part:
Furthermore, the supernatant was centrifuged (105,000 g, for 60 minutes). […] Then IP3 was added thereto, and the released calcium was measured by the measurement of the fluorescence of 500 nm obtained at 2-wavelength excitation of 340 nm and 380 nm, and the fluorescence ratio F=340/380.
as §1

Setting [3] is: increase rate of intracellular calcium concentration on adding 2 mM calcium chloride after store depletion with tapsigalguine, IP3 receptor-deficient DT40 cells, read-out: IC50.
The mark [4] stands for this setting: mouse cerebellum microsomes, calcium released with 30 nM of IP3 defined as 100%, read-out: IC50.

Each structure is given as a SMILES string. Like-named read-outs stand apart in the source and are kept apart here.

With `Cc1ccc(B(OC(c2ccc(C(F)(F)F)cc2)c2ccccn2)c2ccc(C)c(Cl)c2)cc1Cl` (stereo not shown) [(62), 1-(4-trifluoromethylphenyl)-1-(2-pyridyl)methyl bis(3-chloro-4-methylphenyl)borate], the half-inhibitory concentration (IC50) in test [1] (setting [3]) was 0.13 µM. For the compound `NCCOB(c1ccccc1)c1ccccc1` [Comparative Compound, 2-aminoethyl diphenylborinate, reference compound], the values for the half-maximal inhibitory concentration (IC50) in test [1] (DT40) and in test [2] were 5 µM and 20 µM, respectively. As for `NCCOB(c1ccccc1)c1ccc(COCc2ccc(B(OCCN)c3ccccc3)cc2)cc1` [Compound (90), bis[4-[(2-aminoethoxy)phenylboryl]benzyl]ether], the IC50 came out at 0.059 µM in test [1] (setting [3]) and 6 µM in test [2] (setting [4]).

For the compound `Cc1ccc(B(OC(CN(C)C)CN(C)C)c2ccc(C)c(Cl)c2)cc1Cl` [(60), 1-(dimethylaminomethyl)-2-dimethylaminoethyl bis(3-chloro-4-methylphenyl)borate], the 50% inhibitory concentration (IC50) in test [1] (setting [3]) stood at 0.35 µM. For the compound `Cc1ccc(B(OC(C)c2ccccn2)c2ccc(C)c(Cl)c2)cc1Cl` (stereo not shown) [Compound (53), 1-(2-pyridyl)ethyl bis(3-chloro-4-methylphenyl)borate], the results for the concentration for half-maximal inhibition (IC50) in test [1] (setting [3]) and in test [2] (setting [4]) were 0.63 µM and 3.6 µM, respectively. Regarding `CC(C)(C)c1ccc(B(OCCN)c2ccc(Cl)cc2)cc1` [(84), 2-aminoethyl (4-chlorophenyl)(4-(1,1′-dimethylethyl)phenyl)borate], the concentration for half-maximal inhibition (IC50) in test [2] (setting [4]) came to 4.5 µM. Take `Cc1ccc(B(OCCN)c2ccc(C)c(Cl)c2)cc1Cl` [(30), 2-aminoethyl bis(3-chloro-4-methylphenyl)borate]: the 50% inhibitory concentration (IC50) in test [2] (setting [4]) was 2.6 µM. On the same count and under the same terms, for `CCOC(=O)N1CCC(NCC(OB(c2ccc(C)c(Cl)c2)c2ccc(C)c(Cl)c2)c2ccccc2)CC1` (stereo not shown) [(47), 1-phenyl-2-(1-(ethoxycarbonyl)-piperidine-4-ylamino)ethyl bis(3-chloro-4-methylphenyl)borate] the value was 3.8 µM.

With `OB(c1ccc(Cl)cc1)c1ccc(COCc2ccccc2)cc1` [(3), (4-chlorophenyl)(4-benzyloxymethylphenyl)borate], the half-inhibitory concentration (IC50) in test [2] (setting [4]) was determined as 3 µM.

Take `NCCOB(C1CCCC1)C1CCCC1` [(25), 2-aminoethyl dicyclopentylborate]: the half-maximal inhibitory concentration (IC50) in test [1] (setting [3]) came out at 0.66 µM.

The values above are taken from patent US7217701B2, “Intracellular calcium concentration increase inhibitors” (Katsuhiko Mikoshiba, priority 2001, dated 2007).
